Like-named read-outs stand apart in the source and are kept apart here.
What was measured:
Type in all cases: cell-based, human
[1] = test system: CII/CIII (succinate dehydrogenase / cytochrome bc1 complex); details: permeabilised HepG2; sequential substrates/inhibitors
Procedure: The test compound is injected and OCR is measured. […] OCR is measured for the second time. […] A third and final OCR measurement is conducted.
Compounds were injected sequentially and OCR was measured twice. […] ETC inhibition is determined in decreased OCR.
(§1) All results are average of 2–3 independent experiments.

RPTEC/TERT1 cells = experiment: Resazurin reduction viability assay, RPTEC/TERT1; details: RPTEC/TERT1
Procedure: These cells were obtained under licence from Evercyte GmBH, Vienna Austria. […] For experiments, cells were plated in a required format plate, allowed to become contact-inhibited and fed 24 h prior to treatment exposure. For experiments in galactose condition, cells were fed 24 h prior to experiment with culture medium (custom made DMEM/F12, PromoCell) in which 5 mM glucose was replaced with 5 mM galactose (Merck, G5388).
(§2) The conversion of resazurin to fluorescent resorufin was measured in a plate reader at excitation/emission 540/590 nm.
as §1

HepG2 cells = experiment: Resazurin reduction viability assay, 2D HepG2
Procedure: (§3) The HepG2 cell line, a human hepatocellular carcinoma, was obtained from ATCC (American Type Culture Collection, Wesel, Germany). […] Cells were maintained at 37 °C in a 5% CO2 humidified atmosphere, fed every 2 to 3 days and passaged at approximately 80% confluence. […] For galactose experiments, the medium was refreshed 24 h before exposure with galactose-containing medium. […] Culture medium was refreshed every 3–4 days and the culture was maintained for 21 days prior to dosing.
as §2, §1

HepG2 3D spheroids = experiment: Cell death assay (PI staining) in 3D cultured HepG2 spheroids; details: for EC50: Homo sapiens, HepG2, 24 h
Procedure: as §3
At day 21, the culture medium was replaced by fresh medium containing the compounds in the desired concentration. […] For the repeat exposure scenario, Hoechst was added to the 4th exposure and PI to the 5th exposure. […] The confocal imaging was performed using a Nikon TiE2000 with perfect focus system and XY-stage (Nikon, Amsterdam, The Netherlands). Quantification of the Hoechst and PI signal localization was performed using Nis Elements Analysis software. First, a max projection was created of all z-stacks. The overlapping areas between Hoechst and PI in the projection picture were assessed based on a manually curated intensity threshold. Finally, the fraction of spheroids positive for PI staining was determined.
as §1

SMILES	ETC-complex specificity pattern (CII/CIII) [1]	Statistical significance, Viability Glucose settings Resazurin (RPTEC/TERT1 cells; h = 10 µM)	Statistical significance, Viability Galactose settings Resazurin (HepG2 cells; HepG2, galactose, g = 7 µM)	Statistical significance, Viability Galactose settings Resazurin (HepG2 cells; HepG2, galactose, h = 10 µM)	Statistical significance, Viability Glucose settings Resazurin (RPTEC/TERT1 cells; g = 7 µM)	Statistical significance, Viability Galactose settings Resazurin (HepG2 cells; HepG2, galactose, e = 0.08 µM)	Statistical significance, Viability Galactose settings Resazurin (HepG2 cells; HepG2, galactose, f = 0.4 µM)	other results
CO/C=C(/C(=O)OC)c1ccccc1Oc1cc(Oc2ccccc2C#N)ncn1 [Azoxystrobin]	only partially rescued with ascorbate/TMPD	* (*p < 0.05 (Tables 3, 4))	* (*p < 0.05 (Tables 3, 4))	* (*p < 0.05 (Tables 3, 4))	–	–	–	Statistical significance, Viability Galactose settings Resazurin (RPTEC/TERT1 cells; g = 7 µM): * (*p < 0.05 (Tables 3, 4)); Statistical significance, Viability Galactose settings Resazurin (RPTEC/TERT1 cells; h = 10 µM): * (*p < 0.05 (Tables 3, 4))
CCOCCc1ccc(OCCN=c2[nH]cnc(CC)c2Cl)c(C)c1C [Pyrimidifen]	–	* (*p < 0.05 (Tables 3, 4))	* (*p < 0.05 (Tables 3, 4))	* (*p < 0.05 (Tables 3, 4))	* (*p < 0.05 (Tables 3, 4))	* (*p < 0.05 (Tables 3, 4))	* (*p < 0.05 (Tables 3, 4))	Statistical significance, Viability Galactose settings Resazurin (HepG2 cells; HepG2, galactose, d = 0.016 µM): * (*p < 0.05 (Tables 3, 4))
CON=C(C(=O)OC)c1ccccc1CON=C(C)c1cccc(C(F)(F)F)c1 [Trifloxystrobin]	conformed to this pattern	* (*p < 0.05 (Tables 3, 4))	* (*p < 0.05 (Tables 3, 4))	* (*p < 0.05 (Tables 3, 4))	–	–	* (*p < 0.05 (Tables 3, 4))	–
CSC1=N[C@@](C)(c2ccccc2)C(=O)N1Nc1ccccc1 [Fenamidone]	only partially rescued with ascorbate/TMPD	–	–	* (*p < 0.05 (Tables 3, 4))	–	–	–	–
CC(C)(C)c1ccc(CSc2cnn(C(C)(C)C)c(=O)c2Cl)cc1 [Pyridaben]	–	* (*p < 0.05 (Tables 3, 4))	* (*p < 0.05 (Tables 3, 4))	* (*p < 0.05 (Tables 3, 4))	* (*p < 0.05 (Tables 3, 4))	* (*p < 0.05 (Tables 3, 4))	* (*p < 0.05 (Tables 3, 4))	Statistical significance, Viability Glucose settings Resazurin (RPTEC/TERT1 cells; f = 0.4 µM): * (*p < 0.05 (Tables 3, 4)); Statistical significance, Viability Galactose settings Resazurin (HepG2 cells; HepG2, galactose, d = 0.016 µM): * (*p < 0.05 (Tables 3, 4))
C=C(C)[C@H]1Cc2c(ccc3c2O[C@@H]2COc4cc(OC)c(OC)cc4[C@@H]2C3=O)O1 [Rotenone]	–	–	–	–	–	–	–	EC50 (HepG2 3D spheroids; read-out: EC50 cell death 3D HepG2, 1 × 24 h exposure): 0.127 µM; EC50 (HepG2 3D spheroids; read-out: EC50 cell death 3D HepG2, 5 × 24 h exposure): 0.028 µM; Effect on resazurin reduction / viability (HepG2 cells; up to 10 µM, 24 h exposure, glucose): mildly affected the viability
CCc1nn(C)c(C(=O)NCc2ccc(C(C)(C)C)cc2)c1Cl [Tebufenpyrad]	–	* (*p < 0.05 (Tables 3, 4))	* (*p < 0.05 (Tables 3, 4))	* (*p < 0.05 (Tables 3, 4))	* (*p < 0.05 (Tables 3, 4))	* (*p < 0.05 (Tables 3, 4))	* (*p < 0.05 (Tables 3, 4))	Effect of repeated exposure (5 × 24 h vs 1 × 24 h) on toxic sensitivity (HepG2 3D spheroids; 3D HepG2 spheroids): increased the toxic sensitivity; Statistical significance, Viability Glucose settings Resazurin (HepG2 cells; HepG2, glucose, h = 10 µM): * (*p < 0.05 (Tables 3, 4))
CC(C)(C)c1ccc(CCOc2ncnc3ccccc23)cc1 [Fenazaquin]	–	* (*p < 0.05 (Tables 3, 4))	* (*p < 0.05 (Tables 3, 4))	* (*p < 0.05 (Tables 3, 4))	* (*p < 0.05 (Tables 3, 4))	* (*p < 0.05 (Tables 3, 4))	* (*p < 0.05 (Tables 3, 4))	–
CO/N=C(/C(=O)OC)c1ccccc1COc1ccccc1C [Kresoxim-methyl]	–	–	–	–	–	–	–	Statistical significance, Viability Galactose settings Resazurin (HepG2 cells): * (key: *p < 0.05 (Tables 3, 4))

— paper PMC7395062, “Multiparametric assessment of mitochondrial respiratory inhibition in HepG2 and RPTEC/TERT1 cells using a panel of mitochondrial targeting agrochemicals” (Archives of Toxicology, 2020)
